For series [1], the system named is A2780 cells. The experiment in a line: Cell viability assay (PrestoBlue, 72 hour drug incubation). It counts as cell-based. The following applies: 72 hour incubation, growth inhibition; for IC50: Homo sapiens. As to the method:
(§1) MiaPaCa2, A2780, and OVCAR5 cells were plated at 4000 cells/well in a 96-well plate and allowed to adhere overnight. The following day, cells were treated with compounds using ˜10-fold dilutions starting at 1000 nM. PrestoBlue reagent (Invitrogen #A13262) was added to cells after 72 hour drug incubation to assess the growth inhibition. Fluorescence excitation/emission was measured at 560/590nM using a SpectraMax M5^e instrument. Growth inhibition was calculated using 100-[100*(Samples-T0)/(T100-T0)]. T0 is the vehicle control reading immediately following drug addition and T100 is the control reading at the end of 72 hour incubation.

Series [2] has as its system MiaPaCa2 cells. The series is described as above. In kind it is cell-based. The following applies: Homo sapiens, MIA PaCa-2, 72 hour incubation, growth inhibition. The method, then:
as §1

The subject of series [3] is OVCAR5 cells. The description is as above. The following applies: growth inhibition; for IC50: Homo sapiens, OVCAR-5, 72 hour incubation. In kind it is cell-based. The method, then:
as §1

Series [4] relates to proteins in the IKK complex (A2780 cells). Nature of the series: Western blot analysis of crosslinking. It counts as cell-based. The following applies: for crosslinking (high molecular weight bands): A2780 cells, 10 pM, 2 hours. As to the method: Crosslinking of proteins in the IKK complex was studied as follows. A2780 cells were treated with 10 pM of analog 19 or 36-252 and incubated for 2 hours.
Cells were washed with cold 1×PBS 3 times and scraped before being lysed by a buffer containing the following: 50 mM Tris, 100 mM NaCl, 1% NP-40, […], 20% SDS, 20×PPl (Na3VO4, NAF, β-glycerophosphate) and 1 mmol/L PMSF. After collection, samples were incubated on ice for 30 minutes and vortexed in 15 minute intervals. Samples were then centrifuged at 14,000rpm for 10 minutes at 4° C. and supernatant was collected. Protein quantification was determined by BCA Protein Assay (Pierce #23225). 20-40ug protein samples were run on 4-15% gradient gels (BioRad) in 1×TRIS-Glycine-SDS Buffer (Research Products International Corporation #T32080) at 120V for -60 minutes and separated by SDS-page electrophoresis. Samples were transferred to a PVDF membrane by semi-dry transfer method (ThermoScientific #35035) run at 18V for ˜35 minutes. Membranes were blocked in 5% milk diluted in 1×-Tris Buffered Saline with 0.1% Tween (1×TBST) for 1 hour at room temperature rocking at low speed. Primary antibodies were diluted in 5% milk in 1×TBST and were rocked gently overnight in 4° C. Membranes were incubated with the appropriate HRP-conjugated secondary antibody for 1 hour at room temperature while gently rocking. 3 washes (10 minute) with 1×TBST occurred before and after secondary antibody. ECL Prime (GE Healthcare #RPB2236) was used to detect protein expression

The subject of series [5] is non-transformed HGSC precursor fallopian tube epithelial (FTE) cells FT282. The experiment in a line: Growth inhibition in non-transformed fallopian tube epithelial cells. In kind it is cell-based. The following applies: for IC50: Epithelial cell, non-transformed FT282 cells. As to the method: Monomeric compound 19, 36-252, and 36-242 were evaluated in non-transformed HGSC precursor fallopian tube epithelial (FTE) cells FT282.

The test system of series [6] is caspase 3/7 activity in HGSC cell lines. Nature of the series: Caspase 3/7 luciferase assay (apoptosis). The following applies: 1 μM, 6 hours, five HGSC cell lines. In kind it is cell-based. As to the method: To determine the effect of 36-252 on apoptosis, a small panel of HGSC cell lines was treated with 1 μM 36-252 for 6 hours (1 μM of flavopiridol was used as a positive control). Caspases are a class of cysteine proteinases that are activated during apoptosis and measuring caspase activity is routinely used to detect activation of apoptotic signaling. Activation of caspase 3/7 was assessed using a luciferase assay.
2500 cells were plated in a 384-well black walled clear bottom plate at 2,500 cells per well in […] per well in the presence of 4.5 μM doxycycline. Cells were incubated overnight to adhere to plate. After cells were treated and plate was allowed to incubate, Caspase-glo (Promega G8093) reagent was added and the plate was allowed to incubate for 30 min. The plate was then read for luminescence at 1000 ms. Presto-blue was added at a volume of 1/10 total volume per well (2.5μL) and cells were allowed to incubate for 10 min. The plate was then read for fluorescence at 560ex/590em. Values were calculated by: ([Luminescence*100]/Fluorescence)/DMSOavg.

A short description of series [7]: Dose limiting toxicities / MTD study. In kind it is in vivo. The method, then:
Six to eight-week-old C57 Albino mice (18-22 grams) were used in this study and were randomly assigned. For MTD studies, 3 mice were randomly assigned to six groups. Animals (Group 1-6) received a single dose of (0, 1, 5, 10, 20 and 100 mg/Kg in […] neat DMSO) of 36-252 via intraperitoneal injection. Mice were sacrificed after 48 hours, and blood and serum samples were subjected to hematology and clinical chemistry analyses. For group 7, a 6-day, 5 mg/kg/day study was carried out followed by submission of samples for hematology and clinical chemistry analyses.
In the phase I study, the lethal dose or maximum tolerated dose of 36-252 was evaluated. […] In the phase II study, three mice at 5 mg/kg/day were administered intraperitoneally for six days.

Series [8] relates to high grade serous carcinoma (HGSC) ovarian cancer cell lines. The experiment in a line: Growth inhibition in a panel of HGSC ovarian cancer cell lines. In kind it is cell-based. As to the method: The IC50 value of all three inhibitors was greater than 20 μM in this cell line.
In series [9] the test system is OVCAR5 SP cells. Nature of the series: Side population analysis (Hoechst 33342, flow cytometry). The following applies: 60 μM, 15 min at 37° C.
Method: (§2) Hoechst 33342 dye (5 μg) was added to each tube and incubated for 45 min at 37° C. Tubes were vortexed slightly after every 5 min. Cells were resuspended in a single cell suspension after centrifugation and kept on ice before acquisition. The side-population was measured by flow cytometry.
The subject of series [10] is A2780 SP cells. Described as above. The following applies: 60 μM, 15 min at 37° C.
Method: as §2
Series [11] has as its system TNF-α-induced NFκB activity in A549 luciferase cells. The experiment in a line: kB-luciferase assay. The following applies: 20, 4, and 0.8 pM for 2 hours, then TNF-a. In kind it is cell-based. As to the method:
A549 luciferase cells were seeded in white 96-well plates at a density of 50,000 cells per well and incubated overnight. Cells were stimulated with 20 ng/mL TNFα (Panomics) for 3 hours. AlamarBlue (abSerotec) was added (which served as a control for seeding and viability) and the cells were incubated for 3 additional hours. ONE-Glo Luciferase reagent (Promega) was added to each well and cells were incubated at room temperature for an additional 10 minutes before luminescence was measured at 1000 ms integration on a SpectraMax M5e plate reader.
The effect 36-252 and 36-297 on NFκB driven gene expression was evaluated using a cancer cell line specifically designed to monitor the activity of NFκB in response to TNF-α. Cells were seeded onto 96-well plates and allowed to attach overnight. The cells were treated with 36-252 and 36-297 (20, 4, and 0.8 pM) for 2 hours, followed by TNF-a for an additional 6 hours. Under multiplexing conditions the cells were assayed for viability using Alamar Blue (Ab Serotec) and the NFκB transcription activity using the ONE-Glo luciferase system (Promega).

Series [12] deals with ovarian cancer cells. Nature of the series: 3-day growth assay. It counts as cell-based. From the text:
In the same assay, reduced compound 36-297.

[13] abbreviates: mouse, in vivo, ip, 5 mg/kg/day.
The mark [14] stands for this setting: panel of HGSC ovarian cancer cell lines.

In general, IC50 refers to the concentration needed to halve the response being measured. A higher IC50 goes with weaker potency in that assay.

For `C=C1CC2(OC1=O)C(=O)N(CCCCCCN1C(=O)C3(CC(=C)C(=O)O3)c3ccccc31)c1ccccc12` (centres unmarked) [Compound 36-239], the figures for the IC50 in series [1], in series [2] and in series [3] were 0.7 ± 0.09 µM, 1.05 µM and 0.3 ± 0.02 µM, respectively.
As for `C=C1CC2(OC1=O)C(=O)N(CCCCCCCCCCN1C(=O)C3(CC(=C)C(=O)O3)c3ccccc31)c1ccccc12` (centres unmarked) [Compound 36-256], the values for the IC50 in series [1], in series [2] and in series [3] were 0.49 ± 0.06 µM, 1.47 µM and 0.41 ± 0.06 µM, respectively.
For the molecule `C=C1CC2(OC1=O)C(=O)Nc1ccccc12` (centres unmarked) [Compound 19], the “crosslinking (high molecular weight bands)” value in [4] is “High molecular weight bands in the NFκB and IKBα blots were observed”. The molecule further displayed an IC50 in series [5] of over 20000 nM.
With `C=C1CC2(OC1=O)C(=O)N(CCCCCCCCN1C(=O)C3(CC(=C)C(=O)O3)c3ccccc31)c1ccccc12` (centres unmarked) [Compound 36-254], the IC50 came out at 0.6 ± 0.07 µM in series [1], 1.7 µM in series [2] and 0.32 µM in [3].
As to `C=C1CC2(OC1=O)C(=O)N(CCCCCN1C(=O)C3(CC(=C)C(=O)O3)c3ccccc31)c1ccccc12` (centres unmarked) [Compound 36-202], the IC50 in series [1] came to 0.29 ± 0.04 µM; in series [2], 0.91 µM; in [3], 0.09 ± 0.01 µM.
For the molecule `C=C1CC2(OC1=O)C(=O)N(CCCCCCCCCCCN1C(=O)C3(CC(=C)C(=O)O3)c3ccccc31)c1ccccc12` (centres unmarked) [Compound 36-258], the IC50 came to 0.77 ± 0.14 µM in series [1] and 0.83 ± 0.12 µM in series [3].
For `CC1CC2(OC1=O)C(=O)N(CCCCCCCN1C(=O)C3(CC(C)C(=O)O3)c3ccccc31)c1ccccc12` (centres unmarked) [Compound 36-297], in [1], the “IC50 (μM) A2780” value is “Inactive”. The “IC50 (μM) OVCAR5” value in series [3] (72 hour incubation) is given as “Inactive”.
As to `C=C1CC2(OC1=O)C(=O)N(CCCCCCCN1C(=O)C3(CC(=C)C(=O)O3)c3ccccc31)c1ccccc12` (centres unmarked) [Compound 36-252], in series [6], the “caspase 3/7 activity” value was “Increased caspase 3/7 activity was seen in three of the five HGSC cell lines”. Also, in [7] (1 mg/Kg, 1 dose, intraperitoneal, mice), the Treated/Alive entry was “(3/3)”. For the same molecule, in series [7] (mouse, in vivo), the “hematological analysis (WBC, RBC, hemoglobin)” value is on record as “no significant differences in relative WBC, RBC, or hemoglobin numbers”. Also, the overt toxicity result in [7] (mouse, in vivo, 100 mg/kg) is reported as “no sign of overt toxicity was observed”. The mean body weight entry in series [7] (setting [13]) is “nor was any statistical difference in mean body weight observed”. In addition, in series [7] (setting [13]), the “mortality and clinical levels” value is reported as “No mortality or abnormal clinical levels were observed”. Moreover, the “crosslinking (high molecular weight bands)” value in [4] is “High molecular weight bands in the NFκB and IKBα blots were observed”. The “bands in time course study” value in series [4] (time course study) is “a band between 150 and 250 kDa in addition to the IKBα-NFκB bands”. Also, in series [4] (time course study), the “protein degradation / PARP cleavage” value is “degradation of IKK α/β and PARP cleavage”. In addition, the IC50 in [8] (average over HGSC cell lines) was 780 nM; in series [5], over 20000 nM; in [1], 0.32 µM; in [2], 0.76 µM; in series [3], 0.32 µM. Besides, the “potency compared with 19 and 36-242” value in series [8] (setting [14]) was “more potent than analog 19 and a dimer with a 12-carbon linker 36-242”. In addition, the “potency in HGSC panel” value in series [8] (setting [14]) is given as “sub μM”. The apparent therapeutic index result in series [5] (FT282 IC50 vs average HGSC IC50) is on record as “greater than 25”. In addition, the “SP cells eliminated, OVCAR5” value in [9] is over 85%. For the same molecule, in series [10], the “SP cells eliminated, A2780” value is over 98%. The “inhibition of NFκB transcription activity” value in series [11] was “Dose-dependent inhibition was observed”.
In the case of `C=C1CC2(OC1=O)C(=O)N(CCCCCCCCCN1C(=O)C3(CC(=C)C(=O)O3)c3ccccc31)c1ccccc12` (centres unmarked) [Compound 36-204], the IC50 was 1.08 ± 0.01 µM in series [1], 2.16 µM in [2] and 0.48 ± 0.06 µM in [3].
Regarding `C=C1CC2(OC1=O)C(=O)N(Cc1ccc(CN3C(=O)C4(CC(=C)C(=O)O4)c4ccccc43)cc1)c1ccccc12` (centres unmarked) [Compound 40-014], the IC50 in [1] turned out to be 0.31 ± 0.02 µM; in series [3], 0.18 ± 0.01 µM.
As for `C=C1CC2(NC1=O)C(=O)Nc1ccccc12` (centres unmarked) [Compound 25-4], the IC50 in [1] stood at 0.99 ± 0.11 µM; in series [2] it was 6.08 µM; in series [3], 3.13 ± 0.55 µM.
Turning to `C=C1CC2(NC1=O)C(=O)N(CCCCN1C(=O)C3(CC(=C)C(=O)N3)c3ccccc31)c1ccccc12` (centres unmarked) [Compound 40-038], the IC50 in [1] came to 0.4 ± 0.06 µM; in [3] it was 0.2 ± 0.04 µM.
On to `C=C1CC2(OC1=O)C(=O)N(CCN1C(=O)C3(CC(=C)C(=O)O3)c3ccccc31)c1ccccc12` (centres unmarked) [Compound 40-059], for which the IC50 came out at 0.42 ± 0.04 µM in [1] and 0.32 ± 0.02 µM in series [3].
Consider `C=C1CC2(OC1=O)C(=O)N(CCCN1C(=O)C3(CC(=C)C(=O)O3)c3ccccc31)c1ccccc12` (centres unmarked) [Compound 36-286], for which the IC50 in series [1] stood at 0.23 ± 0.02 µM; in [3] it was 0.09 ± 0.01 µM.
For `C=C1CC2(OC1=O)C(=O)N(CCCCCCCN1C(=O)C3(CC(=C)C(=O)O3)c3c(C)ccc(C)c31)c1c(C)ccc(C)c12` (centres unmarked) [Compound 36-280], the IC50 in series [1] was 0.35 ± 0.05 µM; in [3] it was 0.37 ± 0.04 µM.
Take `C=C1CC2(OC1=O)C(=O)N(CCCCCCCCCCCCN1C(=O)C3(CC(=C)C(=O)O3)c3ccccc31)c1ccccc12` (centres unmarked) [Compound 36-242]: the “potency relative to monomeric compound 19” value in series [12] amounted to 10 fold. Besides, the IC50 in series [5] is over 20000 nM; in series [1] it was 0.5 ± 0.06 µM; in series [2] it was 1.94 µM; in series [3], 0.47 ± 1.29 µM.
